# Values of other authors, collected in patent US9950023B1, “Composition for the treatment of acne” (Parham Tabibian, MD, Inc., priority 2014, dated 2018).
# Assays:
# [1] = tested on: biofilm-associated P. acnes; conditions: in vitro; concentrations as given in the label
# interleukin-8 (IL-8) = conditions: dose-dependent manner
# P. acnes biofilm = conditions: clinical tests, trans Resveratrol extracts
structure (smiles),measurement,setting,value
"Oc1cc(Cl)ccc1Oc1ccc(Cl)cc1Cl [0.1% triclosan, triclosan]",reducing biofilm mass,[1],effective
NC(=O)c1cccnc1 [Nicotinamide],interleukin-8 (IL-8) production,interleukin-8 (IL-8),decreasing interleukin-8 (IL-8) production in a dose-dependent manner
Oc1ccc(C=Cc2cc(O)cc(O)c2)cc1 [Resveratrol],inhibition of P. acnes biofilm formation,P. acnes biofilm,99.2%
